Assay results from patent US20200352912A1, “ANTIMICROBIAL COMPOSITIONS AND METHODS OF USING THE SAME” (The Board Of Supervisors Of Louisiana State University And …, priority 2018, published 2020).
Entries after “also recorded” stand apart in the source; their conditions may differ.

Columns and labels:
S. aureus NRS383 = assay: planktonic antimicrobial assay (OD600 growth); assay type: cell-based, Staphylococcus aureus; conditions: 100 μg/ml (inhibitor-specific concentrations b175), OD600 up to 24 h
Procedure: Effect of COX enzyme inhibitors or PGE2 EP receptor antagonists on microbial growth. The antimicrobial activity of selective COX enzyme inhibitor or PGE2 EP receptor antagonist on the growth of C. albicans DAY185 (A), S. aureus NRS383 (B) and MRSA and MSSA clinical isolates (C). Growth of C. albicans and S. aureus was monitored for up to 24 h in medium alone or supplemented with DMSO or EP receptor antagonists or COX enzyme inhibitor at physiologically relevant concentrations. Data shown are representative of three independent experiments.
C. albicans and S. aureus were grown as described above. […] Cells were grown with shaking as described above, and 1 ml aliquots were removed each hour in duplicate and optical density at 600 nm measured (OD600) by spectrophotometer (Biomate 3S, Thermo Scientific).

[1] = test system: C. albicans and S. aureus; assay: mouse C. albicans-S. aureus polymicrobial intra-abdominal infection; assay type: in vivo, mice
Procedure: Effect of inhibition of EP4 receptor signaling on survival. Mice received either vehicle or EP4 receptor antagonist at a dose of 10 mg/kg by i.p. injection as indicated in Materials and Methods. Mortality was assessed using Kaplan Meier test (***P<0.001; n=20/group) compared to control groups. Data shown are representative of three replicate experiments.
The mouse peritonitis/intra-abdominal model was performed as previously described (8). In brief, for MRSA peritonitis, mice were injected intraperitoneally (i.p.) with 4×10^6 CFU or 5×10^6 CFU or 2×10^7 CFU of S. aureus in 0.2 ml of PBS containing 3% hog gastric mucin type III (Sigma Aldrich). Mice injected i.p. with 0.2 ml of mucin/PBS served as a negative infection control. For the intra-abdominal infection with C. albicans and S. aureus, mice were injected i.p. with 7×10^6 CFU of C. albicans and 8×10^7 CFU of S. aureus (8.7×10^7 CFU total) in 0.2 ml of PBS. After inoculation, mice were observed over 10 days for signs of morbidity (hunched posture, inactivity, lethargy, and ruffled fur) and mortality. […] In the MRSA peritonitis experiments, mice were sacrificed at 24 or 48 h post-inoculation to assess microbial burden. Peritoneal cavities were lavaged by injection of 2 ml of sterile PBS followed by gentle massaging of the peritoneal cavity. Peritoneal lavage fluid then was removed using a pipette inserted into a small incision in the abdominal cavity. Spleens were removed, weighed, and mechanically homogenized prior to CFU analysis. Microbial burdens in the peritoneal lavage fluid and spleen were enumerated as described above.
Each inhibitor was prepared fresh as a concentrated stock (20-25 mg/ml) in DMSO and diluted to a working concentration of […] in sterile PBS (final DMSO concentration, 2.3%). A sham treatment containing only 2.3% DMSO in PBS was also prepared. For the MRSA peritonitis study, the EP4 receptor antagonist was administered 2 h after S. aureus inoculation and once daily thereafter until day 4 post inoculation. For the IAI co-infection study, COX inhibitor or vehicle control was administered 4 h prior to and 4 and 8 h after inoculation with C. albicans and S. aureus while the EP receptor antagonists were administered daily starting 1 day prior to and 5 days after infection. All other procedures were performed as described above. Control groups received the vehicle at the same dose interval.
In a final set of experiments, we evaluated the ability of L-161, 982 to reduce lethality in co-infected mice. Mice co-inoculated with the standard 7×106 C. albicans CFU and 8×107 S. aureus CFU (8.7×10^7 CFU total) were treated with L-161, 982 (10 mg/kg) 2 h post infection and once daily afterwards until day 5. […]

[2] = test system: C. albicans and S. aureus; conditions: mouse, in vivo; cited from earlier work
[3] = test system: S. aureus in polymicrobial biofilms; conditions: 1,600 μg/ml; cited from earlier work

CC(C(=O)Nc1cc(C#N)ccc1CCCC(=O)O)c1ccc(F)c2ccccc12 (centres unmarked) [ONO AE3 208]
growth of S. aureus (S. aureus NRS383): no antimicrobial effect
effect on survival ([1]; 10 mg/kg i.p.): no effect; also recorded: did not enhance survival
antimicrobial effect on S. aureus in vivo ([1]; mouse, in vivo): no antimicrobial effect

COc1ccc2c(c1)c(CC(=O)O)c(C)n2C(=O)c1ccc(Cl)cc1 [indomethacin]
mortality of co-infected mice [2]: prevented mortality

CN[C@H](CC(C)C)C(=O)N[C@H]1C(=O)N[C@@H](CC(N)=O)C(=O)N[C@H]2C(=O)N[C@H]3C(=O)N[C@H](C(=O)N[C@H](C(=O)O)c4cc(O)cc(O)c4-c4cc3ccc4O)[C@H](O)c3ccc(c(Cl)c3)Oc3cc2cc(c3O[C@@H]2O[C@H](CO)[C@@H](O)[C@H](O)[C@H]2O[C@H]2C[C@](C)(N)[C@H](O)[C@H](C)O2)Oc2ccc(cc2Cl)[C@H]1O [vancomycin]
viability of S. aureus in polymicrobial biofilms [3]: no effect on viability
